Experimental data as given in patent publication US10532085B2, “Methods for increasing intracellular activity of Hsp70” (Orphazyme A/S, priority 2010, dated 2020).

Assay: Liposome 90° light scattering, LUVs with negatively charged lipids
Assay type: binding
Conditions: neutral pH; irrespective of charge density (−1 to −2)
Description: Thus, we investigated the interaction of Hsp70 with palmitoyl-oleoyl-phosphatidylcholine (POPC) large unilamellar vesicles (LUVs) containing various membrane-associated anionic lipids, i.e. palmitoyl-oleoyl-phosphatidylserine (POPS; primarily in plasma membrane), cardiolipin (primarily mitochondrial) and BMP (primarily in late endosomes/lysosomes). Taking into account the increasingly acidic milieu of the endo-lysosomal compartment upon maturation to lysosomes, we compared the protein-lipid interactions in neutral (pH 7.4) and acidic (pH 6.0) conditions. […] As reported earlier for POPS, all negatively charged lipids enhanced the binding of rHsp70 to the liposomes at neutral pH approximately 4-fold irrespective of the charge density on the liposome surface (ranging from −1 to −2).
The tryptophan fluorescence spectra (RFI) and liposome 90° light scattering (RSI) were analyzed in a HEPES buffer (20 mM HEPES, 0.1 mM EDTA, pH 7.4 or 6.0 as indicated) employing LUVs consisting of indicated lipids essentially as described in the art. For the RFI, LUVs were added in 10 μM aliquots and spectra recorded after a 20 min stabilization period. For the RSI, recombinant proteins were added in 0.12 nmol aliquots.

rHsp70: recombinant (human) heat shock protein 70; in some tests labelled with Alexa Fluor 488
enhancement of binding to liposomes by negatively charged lipids: approximately 4 fold
